From article PMC3834177 (Cancer Chemotherapy and Pharmacology, 2013)
Marks after values point to notes of the source that are not given here.

Legend:
[1] = Midostaurin PK when administered with ketoconazole
Procedure: According to the US Food and Drug Administration, ketoconazole 400 mg once daily is the recommended dose to evaluate DDIs involving CYP3A4 inhibition. [drawing 1]
Adverse events (AEs) were recorded during the study and up to 1 month (28 days) after the end of study. Volunteers remained at the clinic until AEs were common toxicity criteria (CTC) grade ≤1.
A point estimate and the corresponding 90 % CI for the treatment effect were calculated for the test treatment compared with the reference. These were anti-logged to obtain the point estimate and the 90 % CI for the geometric mean ratio (GMR) on the untransformed scale. […] All ANOVAs were performed using SAS software (SAS Institute Inc., Cary, NC, USA).
(§1) The concentration of ketoconazole in plasma was assessed using a validated LC–MS/MS assay with an LLOQ of 50.0 ng/mL (WuXi Pharmatech Co, Ltd, China). The concentration of rifampicin in plasma was measured using a validated LC–MS/MS assay with an LLOQ of 5.0 ng/mL (SGS, Cephac Europe, SAS). Plasma concentrations of midazolam and its metabolite 1′-hydroxymidazolam, which is generated by CYP3A4 and CYP3A5 in humans, were measured using a validated LC–MS/MS assay with an LLOQ of ≈0.100 ng/mL (SGS, Cephac Europe, SAS). The plasma concentration of 4β-hydroxycholesterol was measured using a validated LC–MS/MS assay with an LLOQ of 3.0 ng/mL (SGS, Cephac Europe, SAS). The concentrations of 6β-hydroxycortisol and cortisol in urine were determined using validated LC–MS/MS assays with an LLOQ of 10.0 ng/mL for 6β-hydroxycortisol and 1.0 ng/mL for cortisol. The ratio of 6β-hydroxycortisol to cortisol was subsequently calculated (SGS, Cephac Europe, SAS). See Supplementary Table 2 for detailed bioanalytical methods for all 3 studies.

[2] = Midostaurin PK when administered with rifampicin; conditions: for AUC0–inf, adjusted geometric mean / AUC0–last, adjusted geometric mean / C max, adjusted geometric mean / t 1/2, adjusted geometric mean / t max, median: plasma, n = 20
Procedure: These endogenous molecules served as exploratory biomarkers for CYP3A4 activity in vivo [21, 22].
A point estimate and the corresponding 90 % CI for the treatment effect (test vs reference) were calculated. These were anti-logged to obtain the GMR and respective 90 % CI. […] The median difference was estimated with the Hodges–Lehmann estimator and its respective exact two-sided 90 % CI. All formal comparative statistical analyses were performed using SAS software.
as §1

mutant FLT3 = conditions: in vitro; read-out: half-maximal inhibitory concentration (IC50), mutant FLT3; cited from earlier work
CYP3A4/5 = conditions: in vitro; read-out: IC50, CYP3A4/5 activity (midazolam 1′-hydroxylation); cited from earlier work
[3] = system: human serum protein α1-acid glycoprotein (AAG); parameters: method as in PMID 11230495; conditions: cited from earlier work
[4] = cited from earlier work
[5] = plasma, Ketoconazole + midostaurin arm, n = 18
[6] = plasma, Placebo + midostaurin arm, ketoconazole study, n = 18
[7] = Placebo + midostaurin arm, rifampicin study

## CN(C(=O)c1ccccc1)[C@@H]1C[C@H]2O[C@@](C)([C@@H]1O)n1c3ccccc3c3c4c(c5c6ccccc6n2c5c31)C(=O)NC4 [CGP62221]
[1]; compared with placebo
  elimination t 1/2 in the presence of ketoconazole: prolonged
[1]; ketoconazole + midostaurin vs placebo + midostaurin
  t max, Hodges–Lehmann estimate of median difference (90 % distribution-free CI): 114.0 (92.8, 116.0) h
[1]; plasma, Ketoconazole + midostaurin arm (midostaurin 50 mg once, ketoconazole 400 mg daily), n = 18
  AUC0–inf, adjusted geometric mean: 110,234.87 ng h/mL
[1]; [5]
  AUC0–last, adjusted geometric mean: 27,237.87 ng h/mL
  C max, adjusted geometric mean: 329.76 ng/mL
[1]; plasma, Ketoconazole + midostaurin arm, for 4 volunteers only (flat terminal phase in others)
  t 1/2, adjusted geometric mean: 142.01^b h
[1]; plasma, Placebo + midostaurin arm (midostaurin 50 mg once), ketoconazole study, n = 18
  AUC0–inf, adjusted geometric mean: 31,366.63 ng h/mL
[1]; [6]
  AUC0–last, adjusted geometric mean: 27,414.44 ng h/mL
  C max, adjusted geometric mean: 586.78 ng/mL
  t 1/2, adjusted geometric mean: 36.60 h
  t max, median: 3.51 h
[2]; compared with midostaurin alone
  decrease in exposure (AUClast) in midostaurin + rifampicin arm: 13.0 fold
[2]; Placebo + midostaurin arm (midostaurin 50 mg once), rifampicin study
  AUC0–inf, adjusted geometric mean: 35,146.80 ng h/mL
[2]; [7]
  AUC0–last, adjusted geometric mean: 32,266.80 ng h/mL
  C max, adjusted geometric mean: 631.46 ng/mL
  t 1/2, adjusted geometric mean: 33.74 h
  t max, median: 3.00 h
[2]; Rifampicin + midostaurin arm (midostaurin 50 mg once, rifampicin 600 mg daily)
  AUC0–inf, adjusted geometric mean: 2,699.43 ng h/mL
[2]; Rifampicin + midostaurin arm
  AUC0–last, adjusted geometric mean: 2,501.48 ng h/mL
  C max, adjusted geometric mean: 396.25 ng/mL
  t 1/2, adjusted geometric mean: 7.02 h
  t max, median: 1.50 h
Mutant FLT3
  IC50: 26 nM
CYP3A4/5
  IC50: < 1000 nM
[3]
  bound to AAG: 88–98%
[4]
  major pathway for elimination: Fecal excretion
